In series [1] the target is T1, OCT2 (Homo sapiens, UniProt O15244).
T1 sequence (O15244 1-555): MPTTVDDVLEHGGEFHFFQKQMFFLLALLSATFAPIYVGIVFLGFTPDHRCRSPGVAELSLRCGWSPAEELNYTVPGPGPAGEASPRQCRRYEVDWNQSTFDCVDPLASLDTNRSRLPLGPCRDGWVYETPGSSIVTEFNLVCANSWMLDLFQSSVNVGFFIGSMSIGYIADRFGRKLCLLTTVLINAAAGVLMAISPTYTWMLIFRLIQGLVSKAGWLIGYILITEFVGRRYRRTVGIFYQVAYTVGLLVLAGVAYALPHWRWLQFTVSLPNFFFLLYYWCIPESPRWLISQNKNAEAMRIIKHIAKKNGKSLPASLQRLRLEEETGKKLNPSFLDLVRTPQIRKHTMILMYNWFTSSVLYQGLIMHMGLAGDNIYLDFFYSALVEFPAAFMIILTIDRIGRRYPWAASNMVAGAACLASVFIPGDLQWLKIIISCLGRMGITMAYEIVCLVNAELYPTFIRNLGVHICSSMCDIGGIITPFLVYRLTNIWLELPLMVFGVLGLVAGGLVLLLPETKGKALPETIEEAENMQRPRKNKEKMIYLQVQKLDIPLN
Nature of the series: Baricitinib substrate study in OCT2-transfected HEK-PEAK cells. It counts as in vitro ADME.

The target of series [2] is T2, OAT1 (Homo sapiens, UniProt Q4U2R8).
T2 sequence (Q4U2R8 1-563): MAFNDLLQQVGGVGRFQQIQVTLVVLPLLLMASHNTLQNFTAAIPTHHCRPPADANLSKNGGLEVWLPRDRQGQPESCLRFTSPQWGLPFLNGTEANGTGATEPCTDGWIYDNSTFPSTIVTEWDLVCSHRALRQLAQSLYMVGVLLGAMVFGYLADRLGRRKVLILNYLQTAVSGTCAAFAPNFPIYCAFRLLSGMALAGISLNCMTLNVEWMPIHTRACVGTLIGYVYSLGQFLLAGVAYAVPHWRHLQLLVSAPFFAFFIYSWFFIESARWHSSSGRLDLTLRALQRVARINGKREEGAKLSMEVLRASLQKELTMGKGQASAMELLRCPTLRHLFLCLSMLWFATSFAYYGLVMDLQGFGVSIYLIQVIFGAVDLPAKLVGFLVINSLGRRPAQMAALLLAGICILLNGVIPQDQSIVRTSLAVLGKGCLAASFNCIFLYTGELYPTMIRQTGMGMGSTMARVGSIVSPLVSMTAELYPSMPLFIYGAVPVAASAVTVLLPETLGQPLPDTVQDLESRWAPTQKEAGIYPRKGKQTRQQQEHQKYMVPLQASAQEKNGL
Nature of the series: Baricitinib substrate study in OAT1-transfected HEK-PEAK cells. It counts as in vitro ADME.

Series [3] deals with T3, OAT3 (Homo sapiens, UniProt Q8TCC7).
T3 sequence (Q8TCC7 1-542): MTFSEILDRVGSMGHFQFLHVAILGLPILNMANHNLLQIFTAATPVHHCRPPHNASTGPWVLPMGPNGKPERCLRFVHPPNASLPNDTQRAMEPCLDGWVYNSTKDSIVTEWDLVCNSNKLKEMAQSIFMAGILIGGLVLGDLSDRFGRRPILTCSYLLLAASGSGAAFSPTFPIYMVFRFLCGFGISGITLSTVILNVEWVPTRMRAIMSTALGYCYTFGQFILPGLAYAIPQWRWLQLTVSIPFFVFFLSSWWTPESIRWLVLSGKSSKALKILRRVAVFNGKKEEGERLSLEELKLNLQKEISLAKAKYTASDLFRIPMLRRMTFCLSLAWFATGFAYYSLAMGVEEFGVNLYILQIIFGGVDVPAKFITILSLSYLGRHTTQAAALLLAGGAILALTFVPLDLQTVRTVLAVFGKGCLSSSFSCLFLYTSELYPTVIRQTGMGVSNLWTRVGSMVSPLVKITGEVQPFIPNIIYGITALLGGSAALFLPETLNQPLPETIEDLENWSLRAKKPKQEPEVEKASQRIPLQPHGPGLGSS
Briefly: Uptake of baricitinib into OAT3-transfected HEK-PEAK cells. It counts as in vitro ADME.

Series [4] concerns the target T4, OCT1 (Homo sapiens, UniProt O15245).
T4 sequence (O15245 1-554): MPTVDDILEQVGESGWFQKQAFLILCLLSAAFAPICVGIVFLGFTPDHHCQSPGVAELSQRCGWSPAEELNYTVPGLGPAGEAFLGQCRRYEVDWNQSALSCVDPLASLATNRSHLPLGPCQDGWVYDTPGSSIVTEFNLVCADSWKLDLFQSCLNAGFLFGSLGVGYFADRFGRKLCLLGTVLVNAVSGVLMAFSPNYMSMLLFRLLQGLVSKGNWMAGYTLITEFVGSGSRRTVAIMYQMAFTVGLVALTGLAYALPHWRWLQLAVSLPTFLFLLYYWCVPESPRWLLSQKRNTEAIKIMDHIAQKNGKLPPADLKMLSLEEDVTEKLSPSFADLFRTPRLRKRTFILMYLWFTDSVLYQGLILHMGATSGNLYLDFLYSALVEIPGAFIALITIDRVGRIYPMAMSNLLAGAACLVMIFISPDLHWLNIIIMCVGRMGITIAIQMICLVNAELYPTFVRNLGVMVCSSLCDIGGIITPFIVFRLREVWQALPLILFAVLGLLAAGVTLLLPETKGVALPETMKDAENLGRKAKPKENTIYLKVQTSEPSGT
Nature of the series: Baricitinib substrate study in OCT1-transfected HEK-PEAK cells. It counts as in vitro ADME.

Series [5] has as its target T5, MATE1 (Homo sapiens, UniProt Q96FL8).
T5 sequence (Q96FL8 1-570): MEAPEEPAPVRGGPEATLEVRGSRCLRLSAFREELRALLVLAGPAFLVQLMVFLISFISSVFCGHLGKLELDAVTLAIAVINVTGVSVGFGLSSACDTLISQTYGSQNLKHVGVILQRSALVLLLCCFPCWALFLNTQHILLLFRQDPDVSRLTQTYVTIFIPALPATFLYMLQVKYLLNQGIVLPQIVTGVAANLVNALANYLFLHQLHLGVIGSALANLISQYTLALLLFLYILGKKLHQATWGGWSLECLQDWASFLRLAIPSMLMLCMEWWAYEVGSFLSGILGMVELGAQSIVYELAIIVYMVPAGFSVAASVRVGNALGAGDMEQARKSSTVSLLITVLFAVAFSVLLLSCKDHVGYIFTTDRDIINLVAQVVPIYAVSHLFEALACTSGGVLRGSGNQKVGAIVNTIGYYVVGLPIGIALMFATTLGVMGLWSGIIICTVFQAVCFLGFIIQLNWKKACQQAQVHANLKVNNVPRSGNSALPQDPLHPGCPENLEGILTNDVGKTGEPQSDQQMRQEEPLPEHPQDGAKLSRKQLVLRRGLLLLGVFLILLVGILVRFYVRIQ
Nature of the series: Baricitinib substrate study in MATE1-transfected HEK cells. The series is classed as in vitro ADME.

Series [6] in a line: Human mass balance study of baricitinib. It counts as in vivo.

SMILES strings stand for the structures. “And” between values parts separate entries of the source, which are not always exact repeats. Equal values may be shown once.

Take `CCS(=O)(=O)N1CC(CC#N)(n2cc(-c3ncnc4[nH]ccc34)cn2)C1` [Baricitinib]: in series [1], the OCT2 substrate entry is “not a substrate”. In series [2], the OAT1 substrate entry is given as “not a substrate”. The OAT3 substrate result in series [3] was “substrate of OAT3”. The “Uptake into OAT3-transfected cells relative to control cells” value in series [3] (1-min incubation) was “approximately double”. Also, the “OAT3 Vmax” value in series [3] (PBPK input) came to 70.76 pmol/min/10^6 cells; in series [3] (average of two experiments), 176.9 pmol/min/mg protein. Moreover, in series [3] (each of two separate experiments), the “OAT3 Vmax (individual experiments)” value was 164.3 ± 7.97 pmol/min/mg protein and 189.5 ± 27.10 pmol/min/mg protein. Besides, the OCT1 substrate result in series [4] is recorded as “not a substrate”. Also, the MATE1 substrate result in series [5] is listed as “not a substrate”. Besides, the “Fa (fraction absorbed)” value in series [6] (calculated from human mass balance study) is reported as 0.8. Further, the blood plasma ratio in series [6] (human, blood and plasma, oral) stood at 1.26. Further, in series [6] (in vivo), the “dose found as parent compound in feces” value is 20 % of the dose.

Source of the values: paper PMC6402191 (Clinical and Translational Science, 2017).
